Experimental data from patent publication US10828300B2, “Substituted 2,4-diaminopyrimidines as kinase inhibitors” (Celgene CAR LLC, priority 2008, dated 2020).
“Also recorded” adds a separate entry of the source.

Columns and labels:
Erbb4 kinase domain = Erbb4 kinase domain (Homo sapiens (Human), UniProt Q15303); assay: Mass spectrometry for ERBB4 (intact protein); type: binding; conditions: 60 minutes at 10-fold excess of compound
Description: Mass Spectrometry for ERBB4
Erbb4 kinase domain (Upstate) was incubated with compound for 60 minutes at 10-fold excess of compound I-4 and I-11 to protein. 1 μl aliquots of the samples (total volume of 4.24 ul) were diluted with 10 μl of 0.1% TFA prior to micro C4 ZipTipping directly onto the MALDI target using Sinapinic acid as the desorption matrix (10 mg/ml in 0.1% TFA:Acetonitrile 50:50). For intact protein mass measurement the instrument was set in Linear mode using a pulsed extraction setting of 16,952 for the myoglobin standard used to calibrate the instrument (Shimadzu Axima TOF^2).
Intact ErbB4 protein occurs at MH+ of 35850 with corresponding sinapinic (matrix) adducts occurring about 200 Da higher. A stochiometric incorporation of the test compound (I-4 and I-11) (Mw of 410 Da) produced a new mass peak which is approximately 410 Da higher (MH+ of 36260).

TEC kinase = TEC kinase (Homo sapiens (Human), UniProt P42680); assay: Mass spectrometry for TEC kinase (tryptic digest); type: binding, Homo sapien; conditions: 3 hrs at 10× excess, peptide GCLLNFLR
Description: Mass Spectrometry for TEC Kinase (Compound I-2)
TEC kinase (45 pmols; Invitrogen) was incubated with (I-2) (450 pmols) for 3 hrs at 10× excess prior to tryptic digestion. Iodoacetamide was used as the alkylating agent after compound incubation. […] For tryptic digests a 5 ul aliquot (7.5 pmols) was diluted with 15 ul of 0.1% TFA prior to micro C18 Zip Tipping directly onto the MALDI target using alpha cyano-4-hydroxy cinnamic acid as the matrix (5 mg/ml in 0.1% TFA:Acetonitrile 50:50).
(§1) For tryptic digests the instrument was set in Reflectron mode with a pulsed extraction setting of 2200. Calibration was done using the Laser Biolabs Pep Mix standard ([…], 1296.69, 1672.92, 2093.09, 2465.20). For CID/PSD analysis the peptide was selected using cursors to set ion gate timing and fragmentation occurred at a laser power about 20% higher and He was used as the collision gas for CID. Calibration for fragments was done using the P14R fragmentation calibration for the Curved field Reflectron.
Mass Spectrometry for TEC Kinase (Compound I-4)
TEC kinase (45 pmols; Invitrogen) was incubated with (I-4) (450 pmols) for 3 hrs at 10× excess prior to tryptic digestion. Iodoacetamide was used as the alkylating agent after compound incubation. […] For tryptic digests a 5 ul aliquot (7.5 pmols) was diluted with 15 ul of 0.1% TFA prior to micro C18 Zip Tipping directly onto the MALDI target using alpha cyano-4-hydroxy cinnamic acid as the matrix (5 mg/ml in 0.1% TFA:Acetonitrile 50:50).
For tryptic digests the instrument was set in Reflectron mode with a pulsed extraction setting of 1800. Calibration was done using the Laser Biolabs Pep Mix standard ([…], 1296.69, 1672.92, 2093.09, 2465.20). For CID/PSD analysis the peptide was selected using cursors to set ion gate timing and fragmentation occurred at a laser power about 20% higher and He was used as the collision gas for CID. Calibration for fragments was done using the P14R fragmentation calibration for the Curved field Reflectron.
Mass Spectrometry for TEC Kinase (Compound I-7) […]

BTK [1] = biological target: T1, BTK (Homo sapiens (Human), UniProt Q06187); assay: Washout experiment with Ramos cells (PLCγ2 phosphorylation); type: cell-based; conditions: Ramos washout assay, 100 nM compound for 1 hour
Description: Washout Experiment with Ramos Cells
Ramos cells were serum starved for one hour in RPMI media +1% glutamine at 37° C. After starvation, Ramos cells were treated with 100 nM compound diluted in serum free RPMI media for 1 hour. After compound treatment, the media was removed and cells were washed with compound-free media. Subsequently, Ramos cells were washed every 2 hours and resuspended in fresh compound-free media. Cells were collected at specified timepoints, treated with 1 ug anti-human IgM (Southern Biotech cat #2022-01) for 10 minutes on ice to induce BCR signaling and then washed in PBS. Ramos cells were then lysed in Cell Extraction Buffer (Invitrogen FNN0011) supplemented with Roche complete protease inhibitor tablets (Roche 11697498001) and phosphatase inhibitors (Roche 04 906 837 001) and 18 ug total protein lysate was loaded in each lane. Inhibition of BTK kinase activity was assayed by measuring its substrate (PLCγ2) phosphorylation by western blot with phospho-specific antibodies from Cell Signaling Technologies cat#3871. The results of this experiment with compounds I-2, I-4 and I-7 are depicted in FIGS. 1, 2 and 3.

JAK3 kinase = JAK3 kinase (Homo sapiens (Human), UniProt P52333); assay: Mass spectrometry for Janus-3 kinase (JAK3), tryptic digest; type: binding, homosapien; conditions: 3 hrs at 10× excess, peptide LVMEYLPSGCLR
Description: Mass Spectrometry for Janus-3 Kinase (JAK3)
JAK3 kinase (33 pmols; Invitrogen) was incubated with (I-7) (327 pmols) for 3 hrs at 10× excess prior to tryptic digestion. Iodoacetamide was used as the alkylating agent after compound incubation. For tryptic digests a 5 ul aliquot (5.5 pmols) was diluted with 15 ul of 0.1% TFA prior to micro C18 Zip Tipping directly onto the MALDI target using alpha cyano-4-hydroxy cinnamic acid as the matrix (5 mg/ml in 0.1% TFA:Acetonitrile 50:50).
as §1

BTK [2] = biological target: T1, BTK; assay: Mass spectrometry for BTK (intact protein, covalent modification); type: binding; conditions: intact BTK, 1 hr, 10× fold excess of compound
Description: Mass Spectrometry for BTK
Intact BTK was incubated for 1 hr at a 10× fold excess of I-7 to protein. Aliquots (2 μl) of the samples were diluted with 10 μl of 0.1% TFA prior to micro C4 ZipTipping directly onto the MALDI target using Sinapinic acid as the desorption matrix (10 mg/ml in 0.1% TFA:Acetonitrile 20:80).

BTK [3] = biological target: T1, BTK; assay: BTK occupancy from in vitro samples by ELISA (Ramos cells, probe I-215); type: cell-based; conditions: probe I-215 ELISA
Text: Measuring BTK occupancy from in vitro samples by ELISA
In order to determine the amount of free BTK in cell or tissue lysates, an ELISA protocol was employed that utilizes a biotinylated probe compound that binds only to free, unoccupied BTK. The conjugated biotin is captured on a streptavidin-coated ELISA plate and detected with a mouse anti-BTK antibody (Becton Dickinson, Franklin Lakes, N.J., USA) and a secondary goat anti-mouse HRP antibody (Zymed, South San Francisco, Calif., USA).
All samples were prepared with equal concentrations of Biorad lysis buffer (Hercules, Calif., USA), 0.5% bovine serum albumin in PBS with 0.05% Tween-20 to give a final concentration of 1 μM I-215. Samples were incubated in a mixing plate for 1 hr at room temperature while shaking to allow probe compound I-215 to bind to free BTK. After incubation with I-215, samples were added to a washed, streptavidin-coated ELISA plate (Pierce, Rockford, Ill., USA) and incubated for 1 hr at room temperature while shaking. The plate was then washed with PBS containing 0.05% Tween-20 using an automatic plate washer. Anti-BTK antibody was prepared at 1:1000 dilution in 0.5% BSA in PBS (0.05% Tween-20) and added to the ELISA plate. The plate was incubated for 1 hr at room temperature while shaking. The plate was washed as described above and the secondary HRP antibody was prepared at 1:5000 dilution in 0.5% BSA in PBS (0.05% Tween-20). The plate was incubated and washed as described above. TMB was added to the plate, and OD650 was monitored until reaching 1 OD unit. The reaction was then stopped with addition of H2SO4. The plate was analyzed using Gen 5 software, and a 4 Parameter Logistic curve was employed to quantitate samples. Recombinant BTK (Invitrogen, Carlsbad, Calif., USA) was used for the standard curve.
A concentration designated as “A” is greater than 1 nM; a concentration designated as “B” is greater than 10 nM; and a concentration designated as “C” is greater than 50 nM.

BTK [4] = biological target: T1, BTK; assay: Omnia assay protocol for potency assessment against BTK; type: biochemical
Text: Omnia Assay Protocol for Potency Assessment Against BTK

Sequence of TEC kinase (P42680 whole entry): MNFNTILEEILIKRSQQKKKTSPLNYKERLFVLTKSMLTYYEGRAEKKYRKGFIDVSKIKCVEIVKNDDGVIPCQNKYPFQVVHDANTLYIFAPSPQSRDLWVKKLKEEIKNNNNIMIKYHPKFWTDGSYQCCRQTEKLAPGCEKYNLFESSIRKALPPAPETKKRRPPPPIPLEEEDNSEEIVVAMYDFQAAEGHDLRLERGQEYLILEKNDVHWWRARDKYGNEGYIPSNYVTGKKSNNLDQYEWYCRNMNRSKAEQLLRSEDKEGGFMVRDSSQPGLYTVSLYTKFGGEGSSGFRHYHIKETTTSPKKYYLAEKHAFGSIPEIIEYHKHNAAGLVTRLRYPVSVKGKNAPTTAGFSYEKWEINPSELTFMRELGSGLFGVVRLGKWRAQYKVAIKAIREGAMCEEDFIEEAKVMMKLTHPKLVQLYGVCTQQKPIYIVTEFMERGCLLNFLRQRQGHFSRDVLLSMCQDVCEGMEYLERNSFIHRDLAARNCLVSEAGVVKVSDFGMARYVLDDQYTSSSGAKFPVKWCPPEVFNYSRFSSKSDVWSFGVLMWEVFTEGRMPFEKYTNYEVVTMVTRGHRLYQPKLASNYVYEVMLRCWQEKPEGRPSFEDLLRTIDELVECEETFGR
T1 sequence (Q06187 whole entry): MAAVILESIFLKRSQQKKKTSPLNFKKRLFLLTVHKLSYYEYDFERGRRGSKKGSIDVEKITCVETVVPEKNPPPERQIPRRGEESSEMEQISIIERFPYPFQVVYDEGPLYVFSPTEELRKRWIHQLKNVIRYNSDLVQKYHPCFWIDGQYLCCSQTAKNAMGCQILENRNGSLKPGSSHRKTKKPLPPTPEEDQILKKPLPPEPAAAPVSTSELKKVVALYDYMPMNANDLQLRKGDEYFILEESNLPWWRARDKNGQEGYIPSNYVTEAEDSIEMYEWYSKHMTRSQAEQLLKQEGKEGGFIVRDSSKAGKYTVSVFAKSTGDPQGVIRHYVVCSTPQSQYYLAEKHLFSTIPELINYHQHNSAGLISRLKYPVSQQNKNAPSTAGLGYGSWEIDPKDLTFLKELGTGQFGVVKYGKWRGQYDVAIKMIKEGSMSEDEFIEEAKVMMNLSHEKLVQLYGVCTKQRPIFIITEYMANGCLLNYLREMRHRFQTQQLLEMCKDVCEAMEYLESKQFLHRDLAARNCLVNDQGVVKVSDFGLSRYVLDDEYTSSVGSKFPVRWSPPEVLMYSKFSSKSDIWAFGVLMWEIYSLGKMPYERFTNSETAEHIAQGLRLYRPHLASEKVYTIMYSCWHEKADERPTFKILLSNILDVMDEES
Sequence of Erbb4 kinase domain (Q15303 718-985): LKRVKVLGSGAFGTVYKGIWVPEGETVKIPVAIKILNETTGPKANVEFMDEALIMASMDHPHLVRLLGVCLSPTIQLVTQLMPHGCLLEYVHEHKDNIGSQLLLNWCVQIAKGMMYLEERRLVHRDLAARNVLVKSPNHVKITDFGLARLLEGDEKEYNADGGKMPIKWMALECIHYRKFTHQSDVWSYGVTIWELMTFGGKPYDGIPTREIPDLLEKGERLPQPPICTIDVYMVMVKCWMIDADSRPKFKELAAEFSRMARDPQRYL
Sequence of JAK3 kinase (P52333 whole entry): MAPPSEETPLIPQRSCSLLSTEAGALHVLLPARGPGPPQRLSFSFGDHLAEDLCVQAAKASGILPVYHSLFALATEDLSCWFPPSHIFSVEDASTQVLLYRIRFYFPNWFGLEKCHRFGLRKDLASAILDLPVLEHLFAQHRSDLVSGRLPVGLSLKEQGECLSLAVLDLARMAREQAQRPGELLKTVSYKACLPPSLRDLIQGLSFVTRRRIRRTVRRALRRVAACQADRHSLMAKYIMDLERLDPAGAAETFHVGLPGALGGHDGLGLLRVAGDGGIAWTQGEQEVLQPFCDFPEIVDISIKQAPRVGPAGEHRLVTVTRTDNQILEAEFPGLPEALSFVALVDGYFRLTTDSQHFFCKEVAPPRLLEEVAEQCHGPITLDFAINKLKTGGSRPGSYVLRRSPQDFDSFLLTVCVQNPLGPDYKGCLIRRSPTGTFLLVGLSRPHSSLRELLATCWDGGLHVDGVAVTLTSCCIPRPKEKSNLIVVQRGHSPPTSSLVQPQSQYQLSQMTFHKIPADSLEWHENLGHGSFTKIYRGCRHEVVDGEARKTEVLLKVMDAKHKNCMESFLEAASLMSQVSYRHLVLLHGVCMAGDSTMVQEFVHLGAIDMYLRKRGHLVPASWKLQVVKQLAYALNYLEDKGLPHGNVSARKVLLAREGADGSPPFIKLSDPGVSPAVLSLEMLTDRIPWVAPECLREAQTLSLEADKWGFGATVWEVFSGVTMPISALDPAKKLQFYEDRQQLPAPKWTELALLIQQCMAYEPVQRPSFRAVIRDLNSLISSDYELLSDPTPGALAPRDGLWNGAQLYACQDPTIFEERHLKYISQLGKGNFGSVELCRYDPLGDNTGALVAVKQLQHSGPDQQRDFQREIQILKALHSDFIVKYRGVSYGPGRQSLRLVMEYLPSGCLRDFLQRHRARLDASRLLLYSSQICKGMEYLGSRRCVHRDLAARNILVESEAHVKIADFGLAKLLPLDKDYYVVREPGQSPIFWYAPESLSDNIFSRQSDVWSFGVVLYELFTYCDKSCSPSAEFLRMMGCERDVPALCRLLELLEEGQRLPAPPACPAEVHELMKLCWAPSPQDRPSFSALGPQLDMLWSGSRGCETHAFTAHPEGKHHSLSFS

With `Cc1cccc(Nc2nc(Nc3cccc(NC(=O)/C=C/CN(C)C)c3)ncc2F)c1` [Compound I-4, (E)-4-(dimethylamino)-N-(3-(5-fluoro-4-(m-tolylamino)pyrimidin-2-ylamino)phenyl)but-2-enamide] the “covalent modification of ErbB4 by mass spectrometry” value (Erbb4 kinase domain) was “covalent modification of ErbB4”, the “covalent modification of TEC kinase by mass spectrometry” value (TEC kinase) was “reaction was complete; also recorded: covalent modification of TEC kinase at Cys449” and the “BTK Inhibition Type” value (BTK [1]) was “irreversible”.

`Cc1cnc(Nc2cccc(S(N)(=O)=O)c2)nc1Nc1ccc2c(c1)CCN(C(=O)CCl)C2` [Compound I-11, 3-(4-(2-(2-chloroacetyl)-1,2,3,4-tetrahydroisoquinolin-6-ylamino)-5-methylpyrimidin-2-ylamino)benzenesulfonamide] was tested, and the “covalent modification of ErbB4 by mass spectrometry” value (Erbb4 kinase domain) was “covalent modification of ErbB4” and the “covalent modification of JAK3 by mass spectrometry” value (JAK3 kinase) was “measurable modification”.

With `C=CC(=O)Nc1cccc(Nc2nc(Nc3ccc(OCCOC)c(F)c3)ncc2F)c1` [Compound I-96, N-(3-(2-(3-fluoro-4-(2-methoxyethoxy)phenylamino)-5-fluoropyrimidin-4-ylamino)phenyl)acrylamide] the “covalent modification of BTK by mass spectrometry” value (BTK [2]) was “completely modify”, the “concentration at which >50% of BTK is occupied” value (BTK [3]) was “A (greater than 1 nM)” and the “concentration at which >90% of BTK is occupied” value (BTK [3]) was “B (greater than 10 nM)”.

`C=CC(=O)Nc1cccc(Nc2nc(Nc3ccccc3)ncc2C(N)=O)c1` [Compound I-230, 4-(3-acrylamidophenylamino)-2-(phenylamino)pyrimidine-5-carboxamide] was tested, and the “BTK Inhibition Type” value (BTK [1]) was “irreversible”.

In the case of `C=CC(=O)Nc1cccc(Nc2ncc(C)c(Nc3cccc(C)c3)n2)c1` [Compound I-2, N-(3-(5-methyl-4-(m-tolylamino)pyrimidin-2-ylamino)phenyl) acrylamide], the “covalent modification of TEC kinase by mass spectrometry” value (TEC kinase) is reported as “covalent modification of TEC kinase at Cys449; also recorded: reaction was complete” and the “BTK Inhibition Type” value (BTK [1]) is reported as “irreversible”.

With `C=CC(=O)Nc1cccc(Oc2nc(Nc3ccccc3)ncc2C)c1` [Compound I-248, N-(3-(5-methyl-2-(phenylamino)pyrimidin-4-yloxy)phenyl)acrylamide] the “BTK Inhibition Type” value (BTK [1]) was “irreversible”.

With `CCC(=O)Nc1cccc(Nc2nc(Nc3ccccc3)ncc2C)c1` [I^R-7, N-(3-(5-methyl-2-(phenylamino)pyrimidin-4-ylamino)phenyl) propionamide] the “biochemical activity against BTK” value (BTK [4]) was “biochemically inactive against BTK”.

In the case of `C=CC(=O)Nc1cccc(Nc2nc(Nc3ccc(OCCOC)cc3)ncc2F)c1` [Compound I-182, N-(3-(5-fluoro-2-(4-(2-methoxyethoxy)phenylamino)pyrimidin-4-ylamino)phenyl)acrylamide], the “covalent modification of BTK by mass spectrometry” value (BTK [2]) is reported as “completely modify”, the “concentration at which >50% of BTK is occupied” value (BTK [3]) is reported as “A (greater than 1 nM)” and the “concentration at which >90% of BTK is occupied” value (BTK [3]) is reported as “C (greater than 50 nM)”.

With `C=CC(=O)Nc1cccc(Nc2nc(Nc3ccc(OC)nc3)ncc2F)c1` [Compound I-243, N-(3-(5-fluoro-2-(6-methoxypyridin-3-ylamino)pyrimidin-4-ylamino)phenyl)acrylamide] the “BTK Inhibition Type” value (BTK [1]) was “irreversible”.
